Like-named read-outs stand apart in the source and are kept apart here.
Columns and labels:
Assay type in all cases: binding
[1] = target: T1, XIAP His-BIR2 (124-240/C202A/C213G) (Homo sapiens, UniProt P98170, C202A/C213G); assay: XIAP-BIR2/SMAC Peptide AlphaScreen Assay
T1 construct: additions of His-BIR2 (124-240/C202A/C213G), Biotinylated SMAC peptide
Description: A. XIAP-BIR2/SMAC Peptide AlphaScreen Assay Assays were performed in white, flat-bottom, 384-well ProxiPlates (Perkin Elmer). […] The reaction was incubated at room temperature for 60 minutes. After 60 minutes, 2.5 μL of Alphascreen detection reagent (Perkin Elmer) was added to the reaction mixture and incubated at room temperature in the dark for 120 minutes. The Alphascreen signal generated by the reaction was detected on the Envision Plate Reader. […] Compounds were dissolved at 10 mM in dimethylsulfoxide (DMSO) and evaluated at eleven concentrations. IC50 values were derived by non-linear regression analysis.

[2] = target: N-His-Tb-BIR3(241-356, XIAP) (Homo sapiens, UniProt P98170); assay: XIAP-BIR3 SMAC Peptide Fluorescence Polarization Assay (FPA)
[3] = target: N-His-Tb-BIR3(262-352, cIAP1) (Homo sapiens, UniProt Q13490); assay: cIAP1-BIR3 SMAC Peptide Fluorescence Polarization Assay (FPA); conditions: Table 3
Description: C. cIAP1-BIR3SMAC Peptide Fluorescence Polarization Assay (FPA)
Assays were performed in black, round-bottom, 96-well plates. The final assay volume was 30 μL prepared from additions of N-His-Tb-BIR3(262-352, cIAP1), fluoresceinated modified SMAC peptide, and test compounds in assay buffer consisting of 20 mM Sodium Phosphate, 1 mM EDTA, 50 mM NaCl, and 0.05% Pluronic F68. The reaction was incubated at room temperature for 60 minutes and fluorescence polarization of the reaction was detected on the LJL Plate Reader. […] The final concentration of reagents in the assay was 36.1 nM N-His-Tb-BIR3(262-352, cIAP1), 1.4 nM fluoresceinated modified SMAC peptide, and 1% DMSO. […] Compounds were dissolved at 10 mM in dimethylsulfoxide (DMSO) and evaluated at eight concentrations. IC50 values were derived by non-linear regression analysis.

His-BIR3 (241-356, XIAP) = target: T2, His-BIR3 (241-356, XIAP) (Homo sapiens, UniProt P98170); assay: XIAP-BIR3/SMAC Homogeneous Time Resolved Fluorescence (HTRF) Assay; conditions: Table 4
T2 construct: additions of His-BIR3 (241-356, XIAP), fluorescein labeled SMAC peptide

[4] = target: T3, His-BIR2-3 (125-356, C202A/C213G, XIAP) (Homo sapiens, UniProt P98170, C202A/C213G); assay: XIAP-BIR2-3 Dimeric SMAC Peptide Homogeneous Time Resolved Fluorescence (HTRF) Assay; conditions: XIAP BIR2-3, HTRF, Table 4
T3 construct: additions of His-BIR2-3 (125-356, C202A/C213G, XIAP), fluorescein labeled dimeric SMAC peptide

[5] = XIAP BIR2, AlphaScreen, Table 2, read-out: BIR2 IC50
[6] = XIAP BIR2, Alphascreen, Table 4, read-out: BIR2 Alpha Screen IC50

Chain of N-His-Tb-BIR3(262-352, cIAP1) (Q13490 262-352): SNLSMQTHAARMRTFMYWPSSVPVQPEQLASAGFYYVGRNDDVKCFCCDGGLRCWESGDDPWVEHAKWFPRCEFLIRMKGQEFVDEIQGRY
T1 sequence (P98170 124-240 C202A/C213G): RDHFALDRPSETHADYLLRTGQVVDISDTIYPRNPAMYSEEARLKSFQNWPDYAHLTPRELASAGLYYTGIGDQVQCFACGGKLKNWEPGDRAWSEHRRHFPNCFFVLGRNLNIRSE
Chain of N-His-Tb-BIR3(241-356, XIAP) (P98170 241-356): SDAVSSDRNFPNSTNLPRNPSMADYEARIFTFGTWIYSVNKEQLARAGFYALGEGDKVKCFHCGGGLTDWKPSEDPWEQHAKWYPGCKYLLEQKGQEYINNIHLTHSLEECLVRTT
T3 sequence (P98170 125-356 C202A/C213G): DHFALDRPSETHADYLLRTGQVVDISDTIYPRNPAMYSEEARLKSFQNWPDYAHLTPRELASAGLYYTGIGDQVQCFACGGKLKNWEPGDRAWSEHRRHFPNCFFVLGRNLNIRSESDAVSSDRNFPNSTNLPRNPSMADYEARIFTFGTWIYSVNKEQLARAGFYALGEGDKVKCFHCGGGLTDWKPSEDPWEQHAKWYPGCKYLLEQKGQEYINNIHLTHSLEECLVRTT
T2 sequence (P98170 241-356): as the sequence (P98170 241-356) above

| SMILES | IC50 [1, 5] | IC50 [2] | IC50 [3] | IC50 [1, 6] | IC50 (His-BIR3 (241-356, XIAP)) | IC50 [4] |
| --- | --- | --- | --- | --- | --- | --- |
| CN[C@@H](C)C(=O)N[C@H](C(=O)N1C[C@@H]2C[C@H]1C(=O)N[C@@H](Cc1ccc3ccccc3c1)C(=O)N[C@H](C(=O)O)Cc1ccc(cc1)OCc1cn(nn1)[C@H]1C[C@@H](C(=O)N[C@@H](Cc3ccc4ccccc4c3)C(=O)N[C@H](C(=O)O)Cc3ccc(cc3)OCc3cn2nn3)N(C(=O)[C@@H](NC(=O)[C@H](C)NC)C(C)C)C1)C(C)C [Compound 110] | < 2000 nM | < 50 nM | < 50 nM |  |  |  |
| CN[C@@H](C)C(=O)N[C@H](C(=O)N1C[C@@H]2C[C@H]1C(=O)N[C@@H](Cc1cccc3ccccc13)C(=O)N[C@H](C(=O)O)Cc1ccc(cc1)COc1cn(nn1)[C@H]1C[C@@H](C(=O)N[C@@H](Cc3cccc4ccccc34)C(=O)N[C@H](C(=O)O)Cc3ccc(cc3)OCc3cn2nn3)N(C(=O)[C@@H](NC(=O)[C@H](C)NC)C(C)C)C1)C(C)C [Compound 111] | < 2000 nM | < 50 nM | < 50 nM |  |  |  |
| CN[C@@H](C)C(=O)N[C@H](C(=O)N1C[C@@H]2C[C@H]1C(=O)N[C@@H](Cc1ccccc1)C(=O)N[C@H](C(=O)O)Cc1ccc(cc1)OCCCn1cc(nn1)-c1ccc(cc1)-c1cn(nn1)[C@H]1C[C@@H](C(=O)N[C@@H](Cc3ccccc3)C(=O)N[C@H](C(=O)O)Cc3ccc(cc3)OCCCn3cc(nn3)-c3ccc(cc3)-c3cn2nn3)N(C(=O)[C@@H](NC(=O)[C@H](C)NC)C(C)C)C1)C(C)C [Compound 137] | < 2000 nM | < 50 nM | < 50 nM |  |  |  |
| CN[C@@H](C)C(=O)N[C@H](C(=O)N1C[C@@H]2C[C@H]1C(=O)N[C@@H](Cc1ccc3ccccc3c1)C(=O)N[C@H](C(=O)O)Cc1ccc(cc1)OCc1cn(nn1)[C@H]1C[C@@H](C(=O)N[C@@H](Cc3ccc4ccccc4c3)C(=O)N[C@H](C(=O)NS(=O)(=O)C3CC3)Cc3ccc(cc3)OCc3cn2nn3)N(C(=O)[C@@H](NC(=O)[C@H](C)NC)C(C)(C)C)C1)C(C)(C)C [Compound 147] |  | < 50 nM |  | < 2000 nM | < 10 nM | 1 to 10 nM |
| CN[C@@H](C)C(=O)N[C@H](C(=O)N1C[C@@H]2C[C@H]1C(=O)N[C@@H](Cc1ccc3ccccc3c1)C(=O)N[C@H](C(=O)NS(=O)(=O)C1CC1)Cc1ccc(cc1)OCc1cn(nn1)[C@H]1C[C@@H](C(=O)N[C@@H](Cc3ccc4ccccc4c3)C(=O)N[C@H](C(=O)NS(=O)(=O)C3CC3)Cc3ccc(cc3)OCc3cn2nn3)N(C(=O)[C@@H](NC(=O)[C@H](C)NC)C(C)(C)C)C1)C(C)(C)C [Compound 148] |  | < 50 nM |  | < 2000 nM | < 10 nM | ≤ 1 nM |
| CN[C@@H](C)C(=O)N[C@H](C(=O)N1C[C@@H]2C[C@H]1C(=O)N[C@@H](Cc1ccccc1)C(=O)N[C@H](C(=O)O)Cc1ccc(cc1)OCc1cn(nn1)[C@H]1C[C@@H](C(=O)N[C@@H](Cc3ccc4ccccc4c3)C(=O)N[C@H](C(=O)O)Cc3ccc(cc3)OCc3cn2nn3)N(C(=O)[C@@H](NC(=O)[C@H](C)NC)C(C)(C)C)C1)C(C)(C)C [Compound 149] |  | < 50 nM |  | < 2000 nM |  |  |
| CN[C@@H](C)C(=O)N[C@H](C(=O)N1C[C@@H]2C[C@H]1C(=O)N[C@@H](Cc1ccccc1)C(=O)N[C@H](C(=O)O)Cc1ccc(cc1)OCc1cn(nn1)[C@H]1C[C@@H](C(=O)N[C@@H](Cc3ccc4ccccc4c3)C(=O)N[C@H](C(=O)OC)Cc3ccc(cc3)OCc3cn2nn3)N(C(=O)[C@@H](NC(=O)[C@H](C)NC)C(C)(C)C)C1)C(C)(C)C [Compound 150] |  | 50 to 100 nM |  | < 2000 nM |  |  |
| CN[C@@H](C)C(=O)N[C@H](C(=O)N1C[C@@H]2C[C@H]1C(=O)N[C@@H](Cc1ccc3ccccc3c1)C(=O)N[C@H](C(=O)O)Cc1ccc(cc1)OCc1cn(nn1)[C@H]1C[C@@H](C(=O)N[C@@H](Cc3ccc4ccccc4c3)C(=O)N[C@H](C(=O)NS(C)(=O)=O)Cc3ccc(cc3)OCc3cn2nn3)N(C(=O)[C@@H](NC(=O)[C@H](C)NC)C(C)(C)C)C1)C(C)(C)C [Compound 1002] |  | < 50 nM |  | < 2000 nM |  |  |
| CN[C@@H](C)C(=O)N[C@H](C(=O)N1C[C@@H]2C[C@H]1C(=O)N[C@@H](Cc1ccc3ccccc3c1)C(=O)N[C@H](C(=O)NS(=O)(=O)c1ccccc1)Cc1ccc(cc1)OCc1cn(nn1)[C@H]1C[C@@H](C(=O)N[C@@H](Cc3ccc4ccccc4c3)C(=O)N[C@H](C(=O)NS(=O)(=O)c3ccccc3)Cc3ccc(cc3)OCc3cn2nn3)N(C(=O)[C@@H](NC(=O)[C@H](C)NC)C(C)(C)C)C1)C(C)(C)C [Compound 1003] |  | 50 to 100 nM |  | < 2000 nM |  |  |
| CN[C@@H](C)C(=O)N[C@H](C(=O)N1C[C@@H]2C[C@H]1C(=O)N[C@@H](Cc1ccc3ccccc3c1)C(=O)N[C@H](C(=O)NS(C)(=O)=O)Cc1ccc(cc1)OCc1cn(nn1)[C@H]1C[C@@H](C(=O)N[C@@H](Cc3ccc4ccccc4c3)C(=O)N[C@H](C(=O)NS(C)(=O)=O)Cc3ccc(cc3)OCc3cn2nn3)N(C(=O)[C@@H](NC(=O)[C@H](C)NC)C(C)(C)C)C1)C(C)(C)C [Compound 1004] |  | 50 to 100 nM |  | < 2000 nM |  |  |
| CCS(=O)(=O)NC(=O)[C@@H]1Cc2ccc(cc2)OCc2cn(nn2)[C@H]2C[C@@H](C(=O)N[C@@H](Cc3ccc4ccccc4c3)C(=O)N[C@H](C(=O)NS(=O)(=O)CC)Cc3ccc(cc3)OCc3cn(nn3)[C@H]3C[C@@H](C(=O)N[C@@H](Cc4ccc5ccccc5c4)C(=O)N1)N(C(=O)[C@@H](NC(=O)[C@H](C)NC)C(C)(C)C)C3)N(C(=O)[C@@H](NC(=O)[C@H](C)NC)C(C)(C)C)C2 [Compound 1005] |  | < 50 nM |  | < 2000 nM |  |  |
| CN[C@@H](C)C(=O)N[C@H](C(=O)N1C[C@@H]2C[C@H]1C(=O)N[C@@H](Cc1ccc3ccccc3c1)C(=O)N[C@H](C(=O)NS(=O)(=O)C(F)(F)F)Cc1ccc(cc1)OCc1cn(nn1)[C@H]1C[C@@H](C(=O)N[C@@H](Cc3ccc4ccccc4c3)C(=O)N[C@H](C(=O)NS(=O)(=O)C(F)(F)F)Cc3ccc(cc3)OCc3cn2nn3)N(C(=O)[C@@H](NC(=O)[C@H](C)NC)C(C)(C)C)C1)C(C)(C)C [Compound 1007] |  | 50 to 100 nM |  | 2000 to 12000 nM |  |  |

— patent US20140309265A1, “MACROCYCLIC COMPOUNDS FOR INHIBITION OF INHIBITORS OF APOPTOSIS” (Ensemble Therapeutics, priority 2011, published 2014)
